Results published in patent publication US12528802B2, “Heterocyclic compound” (Takeda Pharmaceutical Company Limited, priority 2019, dated 2026).

These compounds were tested against T1, glucosylceramide synthase (Homo sapiens, UniProt Q16739) (assay: Glucosylceramide synthase (GCS) enzyme assay, microsome fraction, C8 glucosylceramide quantified by Rapidfire MS/MS). Settings: test compound 10 μM; 1.7 μM UDP-glucose, 3 μM C8 ceramide; room temperature 60 min; read-out: GCS enzyme inhibitory rate at 10 μM (%) (% of control).
T1 construct: made in house; host or cells: Expi293F cells (transient expression, pcDNA3.3-TOPO vector); microsome fraction used as enzyme source
T1 sequence (Q16739 1-394): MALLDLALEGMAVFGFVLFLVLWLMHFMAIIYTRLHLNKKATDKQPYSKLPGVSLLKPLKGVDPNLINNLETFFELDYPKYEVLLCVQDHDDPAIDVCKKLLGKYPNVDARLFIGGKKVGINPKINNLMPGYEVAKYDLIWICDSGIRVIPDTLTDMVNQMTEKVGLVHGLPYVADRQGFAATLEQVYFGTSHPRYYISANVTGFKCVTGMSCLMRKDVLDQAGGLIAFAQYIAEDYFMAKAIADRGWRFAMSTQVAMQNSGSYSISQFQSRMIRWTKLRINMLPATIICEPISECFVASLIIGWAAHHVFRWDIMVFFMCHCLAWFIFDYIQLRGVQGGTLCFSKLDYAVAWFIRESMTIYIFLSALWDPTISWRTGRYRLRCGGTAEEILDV
Type: biochemical
Method in brief: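 Test compound, 10 μM final, was run against human GCS from transfected Expi293F microsome fractions, using substrate solution of 6 μM C8 ceramide (in DOPC liposomes) plus 3.4 μM UDP-glucose, pH 7.5 Tris buffer, 60 min, room temperature. Product C8 glucosylceramide measured by Rapidfire MS/MS against an internal standard, % inhibition referenced to no-enzyme and DMSO wells.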
Work on COc1cc(F)ccc1-c1cncc2c1CN(c1ccc(F)cc1)C2=O [Example 80, 7-(4-fluoro-2-methoxyphenyl)-2-(4-fluorophenyl)-1,2-dihydro-3H-pyrrolo [3,4-c]pyridin-3-one] yielded an inhibition at 10 µM of 72%. For Cn1cc(N2Cc3c(ccnc3-c3ccc(F)cc3OCC(F)(F)F)C2=O)cn1 [Example 81, 4-[4-fluoro-2-(2,2,2-trifluoroethoxy)phenyl]-2-(1-methyl-1H-pyrazol-4-yl)-2,3-dihydro-1H-pyrrolo[3,4-c]pyridin-1-one], the inhibition at 10 µM was 86%. Cc1cc(N2Cc3c(ccnc3-c3ccc(F)cc3OCC(F)(F)F)C2=O)nn1C [Example 82, 2-(1,5-dimethyl-1H-pyrazol-3-yl)-4-[4-fluoro-2-(2,2,2-trifluoroethoxy)phenyl]-2,3-dihydro-1H-pyrrolo[3,4-c]pyridin-1-one] gave an inhibition at 10 µM of 88%. O=C1c2ccnc(-c3ccc(F)cc3OCC(F)(F)F)c2CN1c1cnn(CC(F)(F)F)c1 [Example 83, 4-[4-fluoro-2-(2,2,2-trifluoroethoxy)phenyl]-2-[1-(2,2,2-trifluoroethyl)-1H-pyrazol-4-yl]-2,3-dihydro-1H-pyrrolo[3,4-c]pyridin-1-one] gave an inhibition at 10 µM of 91%. With O=C1c2cncc(-c3ccccc3OCC(F)(F)F)c2CN1c1ccc(F)cc1 [Example 87, 2-(4-fluorophenyl)-7-[2-(2,2,2-trifluoroethoxy)phenyl]-1,2-dihydro-3H-pyrrolo[3,4-c]pyridin-3-one] the inhibition at 10 µM was 86%. CS(=O)(=O)c1ccc(N2Cc3c(ccnc3-c3ccc(F)cc3OCC(F)(F)F)C2=O)cc1 [Example 88, 4-[4-fluoro-2-(2,2,2-trifluoroethoxy)phenyl]-2-[4-(methanesulfonyl)phenyl]-2,3-dihydro-1H-pyrrolo[3,4-c]pyridin-1-one] gave an inhibition at 10 µM of 89%. Work on Cc1ccc(N2Cc3c(ccnc3-c3ccc(F)cc3OCC(F)(F)F)C2=O)cn1 [Example 89, 4-[4-fluoro-2-(2,2,2-trifluoroethoxy)phenyl]-2-(6-methylpyridin-3-yl)-2,3-dihydro-1H-pyrrolo[3,4-c]pyridin-1-one] yielded an inhibition at 10 µM of 96%. O=C1c2ccnc(-c3ccc(F)cc3OCC(F)(F)F)c2CN1c1ccc(OC(F)F)nn1 [Example 90, 2-[6-(difluoromethoxy)pyridazin-3-yl]-4-[4-fluoro-2-(2,2,2-trifluoroethoxy)phenyl]-2,3-dihydro-1H-pyrrolo[3,4-c]pyridin-1-one] gave an inhibition at 10 µM of 85%. O=C1c2ccnc(-c3ccncc3OCC(F)(F)F)c2CN1c1ccc(OC(F)F)cn1 [Example 91, 2-[5-(difluoromethoxy)pyridin-2-yl]-4-[3-(2,2,2-trifluoroethoxy)pyridin-4-yl]-2,3-dihydro-1H-pyrrolo[3,4-c]pyridin-1-one] was tested, and the inhibition at 10 µM was 99%. Cc1nn(-c2ccc(F)cc2OCC(F)(F)F)c2c1C(=O)N(c1ccc(F)cc1)C2 [Example 92, 5-(4-fluorophenyl)-1-[4-fluoro-2-(2,2,2-trifluoroethoxy)phenyl]-3-methyl-5,6-dihydropyrrolo[3,4-c]pyrazol-4(1H)-one] gave an inhibition at 10 µM of 57%. O=C1c2ccnc(-c3ccc(F)cc3OCC(F)(F)F)c2CN1c1cnn(CC(F)F)c1 [Example 93, 2-[1-(2,2-difluoroethyl)-1H-pyrazol-4-yl]-4-[4-fluoro-2-(2,2,2-trifluoroethoxy)phenyl]-2,3-dihydro-1H-pyrrolo[3,4-c]pyridin-1-one] showed an inhibition at 10 µM of 95%. Compound O=C1c2ccnc(-c3ccc(F)cc3OCC(F)(F)F)c2CN1c1cnn(C2CC2)c1 [Example 94, 2-(1-cyclopropyl-1H-pyrazol-4-yl)-4-[4-fluoro-2-(2,2,2-trifluoroethoxy)phenyl]-2,3-dihydro-1H-pyrrolo[3,4-c]pyridin-1-one] has an inhibition at 10 µM of 97%. With CC(C)Cn1cc(N2Cc3c(ccnc3-c3ccc(F)cc3OCC(F)(F)F)C2=O)cn1 [Example 96, 4-[4-fluoro-2-(2,2,2-trifluoroethoxy)phenyl]-2-[1-(2-methylpropyl)-1H-pyrazol-4-yl]-2,3-dihydro-1H-pyrrolo[3,4-c]pyridin-1-one] the inhibition at 10 µM was 99%. Compound CC(C)n1cc(N2Cc3c(ccnc3-c3ccc(F)cc3OCC(F)(F)F)C2=O)cn1 [Example 97, 4-[4-fluoro-2-(2,2,2-trifluoroethoxy)phenyl]-2-[1-(propan-2-yl)-1H-pyrazol-4-yl]-2,3-dihydro-1H-pyrrolo[3,4-c]pyridin-1-one] has an inhibition at 10 µM of 96%. O=C1c2ccnc(-c3ccc(F)cc3OCC(F)(F)F)c2CN1c1ccc(OC2CCOCC2)cc1 [Example 98, 4-[4-fluoro-2-(2,2,2-trifluoroethoxy)phenyl]-2-{4-[(oxan-4-yl)oxy]phenyl}-2,3-dihydro-1H-pyrrolo[3,4-c]pyridin-1-one] was tested, and the inhibition at 10 µM was 100%. O=C1c2ccnc(-c3ccc(F)cc3OCC(F)(F)F)c2CN1c1ncc(OC(F)F)cn1 [Example 99, 2-[5-(difluoromethoxy)pyrimidin-2-yl]-4-[4-fluoro-2-(2,2,2-trifluoroethoxy)phenyl]-2,3-dihydro-1H-pyrrolo[3,4-c]pyridin-1-one] showed an inhibition at 10 µM of 92%. O=C1c2ccnc(-c3ccc(F)cc3OCC(F)(F)F)c2CN1c1cnc(OC(F)F)cn1 [Example 100, 2-[5-(difluoromethoxy)pyrazin-2-yl]-4-[4-fluoro-2-(2,2,2-trifiuoroethoxy)phenyl]-2,3-dihydro-1H-pyrrolo[3,4-c]pyridin-1-one] was tested, and the inhibition at 10 µM was 96%. O=C1c2ccnc(-c3ccc(F)cc3OCc3ccccc3)c2CN1c1ccc(OC(F)F)nc1 [Example 101, 4-[2-(benzyloxy)-4-fluorophenyl]-2-[6-(difluoromethoxy)pyridin-3-yl]-2,3-dihydro-1H-pyrrolo[3,4-c]pyridin-1-one] was tested, and the inhibition at 10 µM was 79%. With CN(C)C(=O)c1ccc(N2Cc3c(ccnc3-c3ccc(F)cc3OCC(F)(F)F)C2=O)cc1 [Example 102, 4-{4-[4-fluoro-2-(2,2,2-trifluoroethoxy)phenyl]-1-oxo-1,3-dihydro-2H-pyrrolo[3,4-c]pyridin-2-yl}-N,N-dimethylbenzamide] the inhibition at 10 µM was 90%. In the case of O=C1c2ccnc(-c3ccccc3OCC3CC(F)(F)C3)c2CN1c1ccc(F)cc1 [Example 103, 4-{2-[(3,3-difluorocyclobutyl)methoxy]phenyl}-2-(4-fluorophenyl)-2,3-dihydro-1H-pyrrolo[3,4-c]pyridin-1-one], the inhibition at 10 µM is reported as 98%. In the case of O=C1c2ccnc(-c3ccncc3OCC(F)(F)F)c2CN1c1ccc(OC(F)F)cc1 [Example 104, 2-[4-(difluoromethoxy)phenyl]-4-[3-(2,2,2-trifluoroethoxy)pyridin-4-yl]-2,3-dihydro-1H-pyrrolo[3,4-c]pyridin-1-one], the inhibition at 10 µM is reported as 99%. In the case of O=C1c2ccnc(-c3ccncc3OCC(F)(F)F)c2CN1c1ccc(OC(F)F)nc1 [Example 105, 2-[6-(difluoromethoxy)pyridin-3-yl]-4-[3-(2,2,2-trifluoroethoxy)pyridin-4-yl]-2,3-dihydro-1H-pyrrolo[3,4-c]pyridin-1-one], the inhibition at 10 µM is reported as 96%. Compound O=C1c2ccnc(-c3ccc(F)cc3OCC(F)(F)F)c2CN1c1ccc(OC2COC2)cc1 [Example 106, 4-[4-fluoro-2-(2,2,2-trifluoroethoxy)phenyl]-2-{4-[(oxetan-3-yl)oxy]phenyl}-2,3-dihydro-1H-pyrrolo[3,4-c]pyridin-1-one] has an inhibition at 10 µM of 94%.
